# Test results from article PMC7846792, “Perception of a divergent family of phytocytokines by the Arabidopsis receptor kinase MIK2” (Nature Communications, 2021).
# No end group written: not given here.
# System: A. thaliana seedlings
# Experiment: Seedling growth inhibition (fresh weight)
# Assay type: in vivo, Arabidopsis thaliana
# Details: mock mean = 1
# Method: Four-day-old seedlings growing on MS plates were transferred individually into separate wells of transparent 48-well tissue culture plates (Greiner Bio-One) containing 500 μL of liquid MS media with/without elicitor addition. The plates were then transferred back to the growth conditions for an additional 10 days before seedlings were blot-dried and weighed.
sequence,measurement,setting,value
PVRSSRSPRSPSF [SCOOP2],"Seedling fresh weight (Fig3C), relative to mock","Col-0, 1 μM, replicate 1",1.166
same,"Seedling fresh weight (Fig3C), relative to mock","Col-0, 1 μM, replicate 2",0.8827
same,"Seedling fresh weight (Fig3C), relative to mock","Col-0, 1 μM, replicate 3",1.02
same,"Seedling fresh weight (Fig3C), relative to mock","Col-0, 1 μM, replicate 4",1.184
same,"Seedling fresh weight (Fig3C), relative to mock","Col-0, 1 μM, replicate 5",0.971
same,"Seedling fresh weight (Fig3C), relative to mock","Col-0, 1 μM, replicate 6",0.6909
same,"Seedling fresh weight (Fig3C), relative to mock","Col-0, 1 μM, replicate 7",0.9497
same,"Seedling fresh weight (Fig3C), relative to mock","Col-0, 1 μM, replicate 8",0.9771
same,"Seedling fresh weight (Fig3C), relative to mock","Col-0, 1 μM, replicate 9",0.9071
same,"Seedling fresh weight (Fig3C), relative to mock","Col-0, 1 μM, replicate 10",0.9253
same,"Seedling fresh weight (Fig3C), relative to mock","Col-0, 1 μM, replicate 11",0.8736
same,"Seedling fresh weight (Fig3C), relative to mock","Col-0, 1 μM, replicate 12",0.9892
same,"Seedling fresh weight (Fig3C), relative to mock","Col-0, 10 μM, replicate 1",0.6187
same,"Seedling fresh weight (Fig3C), relative to mock","Col-0, 10 μM, replicate 2",0.9067
same,"Seedling fresh weight (Fig3C), relative to mock","Col-0, 10 μM, replicate 3",0.8218
same,"Seedling fresh weight (Fig3C), relative to mock","Col-0, 10 μM, replicate 4",0.6399
same,"Seedling fresh weight (Fig3C), relative to mock","Col-0, 10 μM, replicate 5",0.5307
same,"Seedling fresh weight (Fig3C), relative to mock","Col-0, 10 μM, replicate 6",0.5914
same,"Seedling fresh weight (Fig3C), relative to mock","Col-0, 10 μM, replicate 7",0.649
same,"Seedling fresh weight (Fig3C), relative to mock","Col-0, 10 μM, replicate 8",0.6005
same,"Seedling fresh weight (Fig3C), relative to mock","Col-0, 10 μM, replicate 9",0.5337
same,"Seedling fresh weight (Fig3C), relative to mock","Col-0, 10 μM, replicate 10",0.555
same,"Seedling fresh weight (Fig3C), relative to mock","Col-0, 10 μM, replicate 11",0.7005
same,"Seedling fresh weight (Fig3C), relative to mock","Col-0, 10 μM, replicate 12",0.6793
same,"Seedling fresh weight (Fig3C), relative to mock","mik2-1, 1 μM, replicate 1",0.8038
same,"Seedling fresh weight (Fig3C), relative to mock","mik2-1, 1 μM, replicate 2",0.7937
same,"Seedling fresh weight (Fig3C), relative to mock","mik2-1, 1 μM, replicate 3",1.093
same,"Seedling fresh weight (Fig3C), relative to mock","mik2-1, 1 μM, replicate 4",1.0157
same,"Seedling fresh weight (Fig3C), relative to mock","mik2-1, 1 μM, replicate 5",1.096
same,"Seedling fresh weight (Fig3C), relative to mock","mik2-1, 1 μM, replicate 6",0.8812
same,"Seedling fresh weight (Fig3C), relative to mock","mik2-1, 1 μM, replicate 7",0.972
same,"Seedling fresh weight (Fig3C), relative to mock","mik2-1, 1 μM, replicate 8",0.898
same,"Seedling fresh weight (Fig3C), relative to mock","mik2-1, 1 μM, replicate 9",1.0157
same,"Seedling fresh weight (Fig3C), relative to mock","mik2-1, 1 μM, replicate 10",1.002
same,"Seedling fresh weight (Fig3C), relative to mock","mik2-1, 1 μM, replicate 11",1.083
same,"Seedling fresh weight (Fig3C), relative to mock","mik2-1, 1 μM, replicate 12",1.063
same,"Seedling fresh weight (Fig3C), relative to mock","mik2-1, 10 μM, replicate 1",1.068
same,"Seedling fresh weight (Fig3C), relative to mock","mik2-1, 10 μM, replicate 2",1.011
same,"Seedling fresh weight (Fig3C), relative to mock","mik2-1, 10 μM, replicate 3",0.7743
same,"Seedling fresh weight (Fig3C), relative to mock","mik2-1, 10 μM, replicate 4",0.9434
same,"Seedling fresh weight (Fig3C), relative to mock","mik2-1, 10 μM, replicate 5",0.8859
same,"Seedling fresh weight (Fig3C), relative to mock","mik2-1, 10 μM, replicate 6",0.8014
same,"Seedling fresh weight (Fig3C), relative to mock","mik2-1, 10 μM, replicate 7",1.0279
same,"Seedling fresh weight (Fig3C), relative to mock","mik2-1, 10 μM, replicate 8",1.092
same,"Seedling fresh weight (Fig3C), relative to mock","mik2-1, 10 μM, replicate 9",1.001
same,"Seedling fresh weight (Fig3C), relative to mock","mik2-1, 10 μM, replicate 10",0.9772
same,"Seedling fresh weight (Fig3C), relative to mock","mik2-1, 10 μM, replicate 11",1.058
same,"Seedling fresh weight (Fig3C), relative to mock","mik2-1, 10 μM, replicate 12",1.106
RAGPSKSGQGGGR [SCOOP7],"Seedling fresh weight (Fig3C), relative to mock","Col-0, 1 μM, replicate 1",0.0761
same,"Seedling fresh weight (Fig3C), relative to mock","Col-0, 1 μM, replicate 2",0.03653
same,"Seedling fresh weight (Fig3C), relative to mock","Col-0, 1 μM, replicate 3",0.1644
same,"Seedling fresh weight (Fig3C), relative to mock","Col-0, 1 μM, replicate 4",0.1522
same,"Seedling fresh weight (Fig3C), relative to mock","Col-0, 1 μM, replicate 5",0.1644
same,"Seedling fresh weight (Fig3C), relative to mock","Col-0, 1 μM, replicate 6",0.01826
same,"Seedling fresh weight (Fig3C), relative to mock","Col-0, 1 μM, replicate 7",0.0761
same,"Seedling fresh weight (Fig3C), relative to mock","Col-0, 1 μM, replicate 8",0.07914
same,"Seedling fresh weight (Fig3C), relative to mock","Col-0, 1 μM, replicate 9",0.09436
same,"Seedling fresh weight (Fig3C), relative to mock","Col-0, 1 μM, replicate 10",0.08523
same,"Seedling fresh weight (Fig3C), relative to mock","Col-0, 1 μM, replicate 11",0.1218
same,"Seedling fresh weight (Fig3C), relative to mock","Col-0, 1 μM, replicate 12",0.1035
same,"Seedling fresh weight (Fig3C), relative to mock","Col-0, 10 μM, replicate 1",0.009098
same,"Seedling fresh weight (Fig3C), relative to mock","Col-0, 10 μM, replicate 2",0.006065
same,"Seedling fresh weight (Fig3C), relative to mock","Col-0, 10 μM, replicate 3",0.003033
same,"Seedling fresh weight (Fig3C), relative to mock","Col-0, 10 μM, replicate 4",0.009098
same,"Seedling fresh weight (Fig3C), relative to mock","Col-0, 10 μM, replicate 5",0.01213
same,"Seedling fresh weight (Fig3C), relative to mock","Col-0, 10 μM, replicate 6",0.009098
same,"Seedling fresh weight (Fig3C), relative to mock","Col-0, 10 μM, replicate 7",0.01213
same,"Seedling fresh weight (Fig3C), relative to mock","Col-0, 10 μM, replicate 8",0.009098
same,"Seedling fresh weight (Fig3C), relative to mock","Col-0, 10 μM, replicate 9",0.01213
same,"Seedling fresh weight (Fig3C), relative to mock","Col-0, 10 μM, replicate 10",0.009098
same,"Seedling fresh weight (Fig3C), relative to mock","Col-0, 10 μM, replicate 11",0.01516
same,"Seedling fresh weight (Fig3C), relative to mock","Col-0, 10 μM, replicate 12",0.006065
same,"Seedling fresh weight (Fig3C), relative to mock","mik2-1, 1 μM, replicate 1",1.0796
same,"Seedling fresh weight (Fig3C), relative to mock","mik2-1, 1 μM, replicate 2",1.12
same,"Seedling fresh weight (Fig3C), relative to mock","mik2-1, 1 μM, replicate 3",1.033
same,"Seedling fresh weight (Fig3C), relative to mock","mik2-1, 1 μM, replicate 4",0.9787
same,"Seedling fresh weight (Fig3C), relative to mock","mik2-1, 1 μM, replicate 5",1.006
same,"Seedling fresh weight (Fig3C), relative to mock","mik2-1, 1 μM, replicate 6",0.861
same,"Seedling fresh weight (Fig3C), relative to mock","mik2-1, 1 μM, replicate 7",0.9955
same,"Seedling fresh weight (Fig3C), relative to mock","mik2-1, 1 μM, replicate 8",0.9652
same,"Seedling fresh weight (Fig3C), relative to mock","mik2-1, 1 μM, replicate 9",0.9047
same,"Seedling fresh weight (Fig3C), relative to mock","mik2-1, 1 μM, replicate 10",1.0157
same,"Seedling fresh weight (Fig3C), relative to mock","mik2-1, 1 μM, replicate 11",1.049
same,"Seedling fresh weight (Fig3C), relative to mock","mik2-1, 1 μM, replicate 12",0.9518
same,"Seedling fresh weight (Fig3C), relative to mock","mik2-1, 10 μM, replicate 1",1.014
same,"Seedling fresh weight (Fig3C), relative to mock","mik2-1, 10 μM, replicate 2",0.9772
same,"Seedling fresh weight (Fig3C), relative to mock","mik2-1, 10 μM, replicate 3",0.9332
same,"Seedling fresh weight (Fig3C), relative to mock","mik2-1, 10 μM, replicate 4",0.9062
same,"Seedling fresh weight (Fig3C), relative to mock","mik2-1, 10 μM, replicate 5",1.001
same,"Seedling fresh weight (Fig3C), relative to mock","mik2-1, 10 μM, replicate 6",0.94
same,"Seedling fresh weight (Fig3C), relative to mock","mik2-1, 10 μM, replicate 7",1.035
same,"Seedling fresh weight (Fig3C), relative to mock","mik2-1, 10 μM, replicate 8",1.085
same,"Seedling fresh weight (Fig3C), relative to mock","mik2-1, 10 μM, replicate 9",1.062
same,"Seedling fresh weight (Fig3C), relative to mock","mik2-1, 10 μM, replicate 10",0.9197
same,"Seedling fresh weight (Fig3C), relative to mock","mik2-1, 10 μM, replicate 11",0.9569
same,"Seedling fresh weight (Fig3C), relative to mock","mik2-1, 10 μM, replicate 12",0.9028
